These results are taken from patent publication US12036218B2, “Modulators of airway basal cells for the treatment or prevention of lung diseases” (Fraunhofer Gesellschaft zur Förderung der angewandten …, priority 2020, dated 2024).

SMILES strings stand for the structures.

Data set [1] deals with IPF-ABC. As to the kind of experiment: Human 3D bronchosphere assay, IPF-ABC single culture: bronchosphere formation. The format is cell-based. The settings on record: IPF-ABC cultured in 3D, 21 days. How it is done:
(§1) FIG. 5: SRC-inhibitor saracatinib abrogates bronchosphere formation. (A-E) Bronchosphere assays of human IPF-ABCs were performed w/wo IPF lung fibroblasts for 21 days. Cell cultures (n=12, in triplicates) were treated with either vehicle, saracatinib (600, 210, 75, 25, 8 nM), pirfenidone (1 mM) or nintedanib (1 μM). […] (G, H) In the same model we used GFP^+ fibroblasts to study fibroblast proliferation. […] For statistical comparison repeated measures ANOVA with Tukey correction for multiple testing was used.
(§2) Based on the Connectivity MAP predictions, the inventors tested whether saracatinib, a known SRC inhibitor previously tested in human cancer is able to modulate IPF-ABC phenotype. […] The results were similar in cells obtained from 12 different individuals with IPF (P<0.0001, FIG. 5B). […] Similar data were obtained by testing cell proliferation in the MTT assay (P<0.0001, FIG. 5C).
(§3) ABCs, either derived from IPF patients or HV, were cultured in matrigel (Corning) in a transwell system with or without lung fibroblasts either derived from patients with IPF or normal lung for 21 days (if not otherwise indicated) in the incubator (5% CO2, 37° C.). Medium exchange (BEGM (Lonza, Basel, Switzerland, #CC-3170)/DMEM (Dulbecco's Modified Eagle Medium (Gibco, Swit Fisher Scientific/Germany); ratio 1:1) was done every 7 days. In some experiments lentiviral transduced GFP expressing fibroblasts were used. Conditioned medium of the 3D organoid culture (day 7 and day 14) was used for ELISA and fibroblast stimulation experiments. Sircol assay (Scientific-Biocolor/UK, #S1000) was performed as recommended by the manufacturer on matrigel and conditioned medium harvested after 6 weeks of cell culture. Bronchosphere formation was documented by Axio Vert.A1/Zeiss/Germany and Axio Observer Z1/Zeiss/Germany. For histology, immunohistology and confocal laser microscopy 3D cell cultures were cryopreserved using Tissue-Tek and cryomolds (Hartenstein/Germany; #CMM). Detailed information is given in the supplement.

For data set [2], the system named is IPF-ABC. The experiment in a line: MTT cell proliferation assay in IPF-ABC 3D culture. The format is cell-based, human. The following applies: IPF-ABCs without fibroblasts, 21 days; saracatinib 600-8 nM, pirfenidone 1 mM, nintedanib 1 μM. How it is done: as §1, §2, §3
Data set [3] has as its system IPF-ABC with lung fibroblasts. As to the kind of experiment: 3D co-culture model of IPF-ABC with lung fibroblasts: bronchosphere formation. The format is cell-based, human. How it is done:
as §1, §2, §3

The subject of data set [4] is IPF-ABC with IPF lung fibroblasts. The experiment in a line: MTT cell proliferation assay in IPF-ABC / IPF lung fibroblast co-culture. The format is cell-based, human. The settings on record: in the presence of IPF lung fibroblasts, 21 days; saracatinib 600-8 nM, pirfenidone 1 mM, nintedanib 1 μM. The protocol:
as §1, §3

For a further data set, the system named is ABCs. As to the kind of experiment: Cellular vitality of ABCs. The format is cell-based, human. The settings on record: all used concentrations (600, 210, 75, 25, 8 nM).
Source text: as §2

Another data set relates to lung fibroblasts. As to the kind of experiment: Fibroblast proliferation (GFP+ fibroblasts) in IPF-ABC co-culture. The format is cell-based, human. The settings on record: GFP+ fibroblasts co-cultured with IPF-ABC. The protocol:
as §1, §2
ABCs, either derived from IPF patients or HV, were cultured in matrigel (Corning) in a transwell system with or without lung fibroblasts either derived from patients with IPF or normal lung for 21 days (if not otherwise indicated) in the incubator (5% CO2, 37° C.). […]

For another data set, the system named is NRG mice. The experiment in a line: Humanized pulmonary fibrosis model: bleomycin plus intratracheal human IPF-ABCs in NRG mice. The format is in vivo. How it is done: FIG. 6: SRC-inhibitor saracatinib attenuates fibrosis in the humanized mouse model. NRG mice were intratracheally injected with a low dose of bleomycin and 3 days later with human ABCs derived from IPF patients. Mice (n=11 each group, 4 replicates (all data shown)) were treated oropharyngeally with or without saracatinib in a dose of 10 mg/kg once daily starting at day 4 (A-C) or at day 8 (D-F). […] All P values were determined by a paired comparison (t-test) testing the effect of saracatinib treatment for each human IPF cell line.
To test the effect of saracatinib on IPF-ABC induced fibrosis and remodeling in-vivo, the inventors returned to the minimal injury xenotransplant model in NRG mice. Overall, the inventors used IPF-ABCs from 38 different individuals with IPF in these experiments. Per IPF subject, IPF-ABCs were used in two animals, one treated with saracatinib and one with vehicle control, to account for interindividual variability. To test the effect of saracatinib on engraftment and development of fibrosis we started treatment at day 4 post injury, one day post IPF-ABC installation for a total of 18 days (FIG. 6A). […] To test the effect of saracatinib on established fibrosis the inventors performed another set of experiments in which treatment was delayed to day 8 when cell engraftment and fibrosis were already established.
Different mice strains were used for the experiments as indicated. B6;129Sv-Rag2tm1Fwa/ZTM (75) (Rag2−/−) and NOD.Cg-Rag1tm1Mom Il2rgtm1Wjl/SzJZtm (76) (NRG) were obtained from the central animal facility (Hannover Medical School, Hannover). NOD.Cg-Prkdcscid Il2rgtm1Wjl Tg(CAGGS-VENUS)1/Ztm (Venus-NSG) mice were kindly provided by Dr. Wiebke Garrels (Hannover Medical School). Mice received bleomycin dissolved in sterile saline at the dose of 1.2 mg/kg intratracheally on day 0. IPF-ABCs, HV-ABCs (Rag 2−/−: 0.3×105, NRG and NSG: 0.2×105) were injected intratracheally on day 3. In some experiments human IPF-ABCs transduced with a lentiviral vector encoding for GFP and luciferase were injected. Pairs of mice received the same IPF-ABC line and were later treated either with vehicle or saractinib (kindly provided by Leslie Cousens AstraZeneca) in a dose of 10 mg/kg, i.g. once daily. For histological and immunohistological analysis, the trachea was cannulated and lungs were insufflated with 4% paraformaldehyde in PBS at a pressure of 25 cm H2O, followed by removal of the heart and inflated lungs en bloc and immersion in 4% paraformaldehyde overnight at 4° C., and the tissues were processed to paraffin wax or were cryopreserved using Tissue Tek® O.C.T.™ compound. […] Collagen content was determined by quantifying hydroxyproline levels according to manufacturer's description. […]

Where [5] appears, read: pirfenidone 1 mM, nintedanib 1 μM.
[6] abbreviates: 10 mg/kg once daily oropharyngeal, treatment from day 4, read at day 21.
The mark [7] stands for this setting: 10 mg/kg once daily, treatment delayed to day 8 (day 8 to day 21), established fibrosis.

As to `Cc1ccc(=O)n(-c2ccccc2)c1` [pirfenidone], the bronchosphere formation entry in the data set on IPF-ABC [1] (setting [5]) is listed as “no visible effect”; in data set [3] (setting [5]), “significantly reduced bronchosphere formation, but not completely”. In addition, the “cell proliferation as measured by MTI assay” value in the data set with IPF-ABC [2] is “slightly”. Moreover, the “cell proliferation as measured by the MTT assay” value in data set [4] is listed as “less reduced”.

Regarding `COC(=O)c1ccc2c(c1)NC(=O)/C2=C(\Nc1ccc(N(C)C(=O)CN2CCN(C)CC2)cc1)c1ccccc1` [nintedanib], the bronchosphere formation entry in the data set on IPF-ABC [1] (setting [5]) is on record as “no visible effect”; in data set [3] (setting [5]), “significantly reduced bronchosphere formation, but not completely”. In addition, the “cell proliferation as measured by MTI assay” value with IPF-ABC [2] is given as “slightly”. Besides, in data set [4], the “cell proliferation as measured by the MTT assay” value is listed as “less reduced”.

Turning to `CN1CCN(CCOc2cc(OC3CCOCC3)c3c(Nc4c(Cl)ccc5c4OCO5)ncnc3c2)CC1` [saracatinib, N-(5-chloro-1,3-benzodioxol-4-yl)-7-[2-(4-methyl-1-piperazinyl)ethoxy]-5-[(tetrahydro-2H-pyran-4-yl]oxy)-4-quinazolinamine], the bronchosphere formation entry in the data set with IPF-ABC [1] (saracatinib 600 nM, 210 nM, and 75 nM) is recorded as “complete abrogation”; in data set [3] (saracatinib 8 nM), “did not have an effect”; in data set [3] (saracatinib 25 nM), “lower effect”; in data set [3] (saracatinib 600 nM, 210 nM and 75 nM), “completely blocked”. Moreover, the “cell proliferation as measured by MTI assay” value with IPF-ABC [2] is listed as “significantly reduced”. In the data set with ABCs, the “cellular vitality of ABCs” value is “did not affect”. In data set [4], the “cell proliferation as measured by the MTT assay” value is reported as “significantly reduced”. Also, the “fibroblast proliferation in the co-culture” value in the data set on lung fibroblasts was “substantially lower”. Also, the values for the Ashcroft score with NRG mice (setting [6]) and with NRG mice (setting [7]) were 1.4±0.7 and “significant reductions”, respectively. Also, in the data set on NRG mice (setting [6]), the hydroxyproline/total-protein levels came to 0.7±0.6. The hydroxyproline content result with NRG mice (setting [7]) is “significant reductions”.
